Laboratory results from PMC12678798, “Discovery of an allosteric binding site for anthraquinones at the human P2X4 receptor” (Nature Communications, 2025).
Residue numbers refer to the chain shown, from its start. Like-named read-outs stand apart in the source and are kept apart here.

Tests used:
[1] = molecular target: chimeric P2X4(P2X2) receptor c7^I218-D224 (Homo sapiens, UniProt Q99571, A221E/D220H/I218T/K222A/T223S/Y219F); experiment: cell-based
[2] = molecular target: chimeric P2X4(P2X2) receptor c8^R265-L269 (Homo sapiens, UniProt Q99571, A266P/L269E/R265L); experiment: cell-based
zebrafish P2X4 receptor = tested on: zebrafish P2X4 receptor; parameters: method as in PMID 19641588, PMID 12127972; conditions: cited from earlier work
[3] = molecular target: T1, chimeric P2X4(P2X2) receptor c6^N208-S216 (Homo sapiens, UniProt Q99571, I209R/N208D/S216R/T211D/T212G); experiment: cell-based
T1 sequence (Q99571 1-388 N208D/I209R/T211D/T212G/S216R): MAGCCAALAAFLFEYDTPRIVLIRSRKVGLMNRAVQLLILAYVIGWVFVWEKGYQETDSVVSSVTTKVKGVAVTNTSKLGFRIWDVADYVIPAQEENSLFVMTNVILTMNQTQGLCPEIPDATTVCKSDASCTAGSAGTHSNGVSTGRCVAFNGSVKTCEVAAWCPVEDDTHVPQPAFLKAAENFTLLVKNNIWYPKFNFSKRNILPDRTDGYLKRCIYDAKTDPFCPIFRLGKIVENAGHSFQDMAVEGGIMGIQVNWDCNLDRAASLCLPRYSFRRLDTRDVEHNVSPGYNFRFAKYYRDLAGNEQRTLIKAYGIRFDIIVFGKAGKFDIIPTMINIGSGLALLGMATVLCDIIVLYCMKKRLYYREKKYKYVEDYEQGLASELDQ

[4] = tested on: chimeric receptor c1^V71-I83; parameters: method as in PMID 36328074; conditions: cited from earlier work
[5] = molecular target: T2, chimeric P2X4(P2X2) receptor c10^R301-Q308 (Homo sapiens, UniProt Q99571, A304N/D302K/DEL301-301/E307T/L303I/N306T/Q308T); parameters: method as in ref 19 (supplement); conditions: read-out: ATP EC50, published value, ref 19 (supplement); cited from earlier work
T2 construct: expressed in transfected cells; gene synthesis (Geneart), pLVX-IRES-mCherry (bicistronic, mCherry not fused)
T2 sequence (Q99571 with tags, fused parts or gaps DEL301-301/D302K/L303I/A304N/N306T/E307T/Q308T): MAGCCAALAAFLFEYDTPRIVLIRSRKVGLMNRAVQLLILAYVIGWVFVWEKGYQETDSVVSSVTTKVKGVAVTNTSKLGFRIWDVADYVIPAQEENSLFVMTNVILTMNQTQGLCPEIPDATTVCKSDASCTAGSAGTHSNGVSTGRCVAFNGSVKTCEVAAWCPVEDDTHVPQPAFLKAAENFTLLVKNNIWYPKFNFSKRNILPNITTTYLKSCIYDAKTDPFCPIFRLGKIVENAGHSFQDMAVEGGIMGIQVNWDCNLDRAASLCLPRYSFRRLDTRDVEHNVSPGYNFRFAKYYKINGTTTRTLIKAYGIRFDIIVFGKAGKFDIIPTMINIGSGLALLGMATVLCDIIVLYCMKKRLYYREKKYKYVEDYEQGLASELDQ

[6] = molecular target: chimeric P2X4(P2X2) receptor c2-c5^C116-T186 (Homo sapiens, UniProt Q99571, A122H/A137L/A177Q/A181M/D121V/DEL149-175/E183P/G138D/H140L/INS118S/INS148CVPYYQGPSKTCEVFGWCPVEDGASV/INS179G/K127L/K180T/P120R/P176S/S131D/S136E/S141G/S145R/T123N/T124A/T133V/T139M/V125T/V144L); experiment: cell-based
[7] = molecular target: P2X4-D302I receptor mutant (Homo sapiens, UniProt Q99571, D302I); experiment: cell-based
[8] = molecular target: T3, hP2X4-E307T receptor mutant (Homo sapiens, UniProt Q99571, E307T); experiment: Two-electrode voltage clamp (TEVC), P2X4-E307T in Xenopus laevis oocytes; format: cell-based; conditions: TEVC at -60 mV, Xenopus oocytes, P2X4-E307T
T3 construct: host or cells: Xenopus laevis oocytes injected with cRNA (pNKS2 vector)
T3 sequence (Q99571 1-388 E307T): T1 sequence (Q99571 1-388 N208D/I209R/T211D/T212G/S216R) with D208N, R209I, D211T, G212T, R216S, E307T

[9] = molecular target: T1, chimeric P2X4(P2X2) receptor c6^N208-S216; parameters: expressed in transfected cells; gene synthesis (Geneart), pLVX-IRES-mCherry; method as in ref 19 (supplement); conditions: read-out: ATP EC50, published value, ref 19 (supplement); cited from earlier work
[10] = molecular target: T4, human P2X4-E307T receptor mutant (Homo sapiens, UniProt Q99571, E307T); experiment: ATP-induced calcium influx assay, P2X4-E307T mutant in 1321N1 astrocytoma cells; format: cell-based; conditions: P2X4-E307T
T4 construct: expressed in transfected cells
T4 sequence (Q99571 1-388 E307T): T1 sequence (Q99571 1-388 N208D/I209R/T211D/T212G/S216R) with D208N, R209I, D211T, G212T, R216S, E307T

human wt P2X4 receptor = molecular target: T5, human wt P2X4 receptor (Homo sapiens, UniProt Q99571); experiment: ATP-induced calcium influx assay, human wt P2X4 receptor in 1321N1 astrocytoma cells; format: cell-based; conditions: wt hP2X4; calcium influx
T5 construct: expressed in transfected cells
T5 sequence (Q99571 1-388): T1 sequence (Q99571 1-388 N208D/I209R/T211D/T212G/S216R) with D208N, R209I, D211T, G212T, R216S

Sequence of P2X4-D302I receptor mutant (Q99571 whole entry D302I): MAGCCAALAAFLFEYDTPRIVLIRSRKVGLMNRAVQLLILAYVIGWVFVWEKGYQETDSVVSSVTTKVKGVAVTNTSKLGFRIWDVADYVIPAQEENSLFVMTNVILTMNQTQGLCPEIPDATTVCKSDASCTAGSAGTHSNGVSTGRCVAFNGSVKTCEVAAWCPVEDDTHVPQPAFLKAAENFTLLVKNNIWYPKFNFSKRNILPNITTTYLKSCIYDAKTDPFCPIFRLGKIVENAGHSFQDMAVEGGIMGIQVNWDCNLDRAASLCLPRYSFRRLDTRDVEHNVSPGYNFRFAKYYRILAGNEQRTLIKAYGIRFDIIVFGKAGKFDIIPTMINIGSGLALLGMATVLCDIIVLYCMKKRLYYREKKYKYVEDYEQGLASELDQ
Sequence of chimeric P2X4(P2X2) receptor c7^I218-D224 (Q99571 whole entry I218T/Y219F/D220H/A221E/K222A/T223S): as the sequence (Q99571 whole entry D302I) above, with I218T, Y219F, D220H, A221E, K222A, T223S, I302D counted along it
Sequence of chimeric P2X4(P2X2) receptor c2-c5^C116-T186 (Q99571 with tags, fused parts or gaps isoform Q99571-3 with the stated changes): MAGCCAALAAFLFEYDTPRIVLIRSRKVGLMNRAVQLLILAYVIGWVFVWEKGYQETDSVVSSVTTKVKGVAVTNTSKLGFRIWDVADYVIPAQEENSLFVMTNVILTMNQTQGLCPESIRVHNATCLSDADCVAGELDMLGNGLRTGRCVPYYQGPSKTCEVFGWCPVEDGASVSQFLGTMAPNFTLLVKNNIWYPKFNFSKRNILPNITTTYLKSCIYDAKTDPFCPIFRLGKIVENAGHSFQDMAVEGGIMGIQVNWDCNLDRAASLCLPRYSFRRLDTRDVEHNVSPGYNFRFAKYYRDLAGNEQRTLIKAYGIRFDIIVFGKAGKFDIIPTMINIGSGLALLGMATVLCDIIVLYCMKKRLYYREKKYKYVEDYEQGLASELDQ
Sequence of chimeric P2X4(P2X2) receptor c8^R265-L269 (Q99571 whole entry R265L/A266P/L269E): as the sequence (Q99571 whole entry D302I) above, with R265L, A266P, L269E, I302D counted along it

For Nc1ncnc2c1ncn2[C@@H]1O[C@H](COP(=O)(O)OP(=O)(O)OP(=O)(O)O)[C@@H](O)[C@H]1O [ATP, Adenosine 5′-triphosphate], the EC50 [1] is given as 1200 nM, the EC50 [2] is given as 389 nM and the “Potency of ATP at the zebrafish P2X4 receptor lower than at the human P2X4 receptor” value (zebrafish P2X4 receptor) is given as “about 700 fold”. For the same molecule, the EC50 [3] was 589 nM, the “Maximal effect of ATP compared to that of the human wt P2X4 receptor” value [4] was 4% and the EC50 [5] was 862 nM. For the same molecule, the EC50 [6] was 2290 nM, the EC50 ([7]; ATP EC50, P2X4-D302I) was 1600 nM and the EC50 ([7]; ATP pEC50 ± SEM, P2X4-D302I) was 1410 nM. For the same molecule, the EC50 [8] was ~10000 nM, the EC50 [9] was 572 nM and the EC50 [10] was 921 nM. For the same molecule, the EC50 (human wt P2X4 receptor) was 357 nM.
